A short description of assay [1]: DRUGMATRIX: Glutamate, AMPA radioligand binding (ligand: [3H] AMPA). The format is cell membranes, Rattus norvegicus, Wistar, Cerebral cortex, Membrane. To be noted: Not Active = under 50% inhibition at 10 µM.
For assay [2], the target named is T1, Alpha-2C adrenergic receptor (Homo sapiens, UniProt P18825).
T1 sequence (P18825 whole entry): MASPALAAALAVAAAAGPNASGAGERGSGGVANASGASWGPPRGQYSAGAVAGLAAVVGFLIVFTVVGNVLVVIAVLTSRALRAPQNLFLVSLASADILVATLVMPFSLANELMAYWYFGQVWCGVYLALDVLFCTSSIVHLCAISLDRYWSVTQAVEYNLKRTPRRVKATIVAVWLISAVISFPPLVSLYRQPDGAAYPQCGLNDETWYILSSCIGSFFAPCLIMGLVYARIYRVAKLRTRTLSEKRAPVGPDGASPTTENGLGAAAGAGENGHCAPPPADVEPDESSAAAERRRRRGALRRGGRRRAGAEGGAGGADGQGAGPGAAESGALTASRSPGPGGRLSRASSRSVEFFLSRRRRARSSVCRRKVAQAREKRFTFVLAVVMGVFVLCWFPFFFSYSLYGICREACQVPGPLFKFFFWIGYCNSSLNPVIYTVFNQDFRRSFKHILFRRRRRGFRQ
Briefly: DRUGMATRIX: Adrenergic Alpha-2C radioligand binding (ligand: [3H] MK-912). The class given is cell membranes, Sf9, Membrane.

For the next assay, the target named is T2, Adenosine receptor A3 (Homo sapiens, UniProt P0DMS8).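 Further: radioligand binding assay with AB-MECA serving as the labeled ligand; in other assays of this panel Not Active means under 50% inhibition at 10 µM.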
T2 sequence (P0DMS8 whole entry): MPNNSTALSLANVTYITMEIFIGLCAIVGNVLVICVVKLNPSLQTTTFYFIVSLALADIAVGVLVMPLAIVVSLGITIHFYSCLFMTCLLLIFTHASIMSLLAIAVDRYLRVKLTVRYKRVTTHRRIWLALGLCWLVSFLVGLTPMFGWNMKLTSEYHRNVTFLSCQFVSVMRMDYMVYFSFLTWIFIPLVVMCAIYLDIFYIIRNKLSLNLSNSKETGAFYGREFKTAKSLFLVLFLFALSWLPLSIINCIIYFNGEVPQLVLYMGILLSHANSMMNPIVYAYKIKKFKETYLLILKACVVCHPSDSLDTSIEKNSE
The class given is cell membranes, CHO-K1, Membrane.

Another assay concerns the target Insulin receptor (Rattus norvegicus, UniProt P15127). The format is cell membranes, Wistar, Liver, Membrane. Further: in other assays of this panel Not Active means under 50% inhibition at 10 µM.
Assay [3] in a line: DRUGMATRIX: Leukotriene, BLT (LTB4) radioligand binding (ligand: [3H]LTB4). To be noted: u-937; Not Active = under 50% inhibition at 10 µM. The format is cell membranes, Membrane.
Assay [4] concerns the target Mitogen-activated protein kinase 3 (Homo sapiens, UniProt P27361). Briefly: DRUGMATRIX: Protein Serine/Threonine Kinase, ERK1 enzyme inhibition (substrate: Myelin Basic Protein). To be noted: Not Active = under 50% inhibition at 10 µM. Set-up: species or system Escherichia coli.

pIC50, pKi: −log10 of the molar value.

Mitogen-activated protein kinase 3, sequence (P27361 whole entry): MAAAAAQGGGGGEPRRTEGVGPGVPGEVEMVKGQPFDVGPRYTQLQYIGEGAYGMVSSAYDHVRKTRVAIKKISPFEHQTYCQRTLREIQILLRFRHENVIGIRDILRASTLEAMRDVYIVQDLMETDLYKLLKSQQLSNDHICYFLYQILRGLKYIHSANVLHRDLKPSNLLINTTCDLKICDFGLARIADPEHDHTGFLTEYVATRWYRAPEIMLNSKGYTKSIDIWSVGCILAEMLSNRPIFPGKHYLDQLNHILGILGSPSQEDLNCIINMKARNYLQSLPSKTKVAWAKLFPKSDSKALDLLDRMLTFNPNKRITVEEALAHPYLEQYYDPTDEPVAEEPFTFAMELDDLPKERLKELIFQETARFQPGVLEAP
Insulin receptor, sequence (P15127 27-759 limits assumed): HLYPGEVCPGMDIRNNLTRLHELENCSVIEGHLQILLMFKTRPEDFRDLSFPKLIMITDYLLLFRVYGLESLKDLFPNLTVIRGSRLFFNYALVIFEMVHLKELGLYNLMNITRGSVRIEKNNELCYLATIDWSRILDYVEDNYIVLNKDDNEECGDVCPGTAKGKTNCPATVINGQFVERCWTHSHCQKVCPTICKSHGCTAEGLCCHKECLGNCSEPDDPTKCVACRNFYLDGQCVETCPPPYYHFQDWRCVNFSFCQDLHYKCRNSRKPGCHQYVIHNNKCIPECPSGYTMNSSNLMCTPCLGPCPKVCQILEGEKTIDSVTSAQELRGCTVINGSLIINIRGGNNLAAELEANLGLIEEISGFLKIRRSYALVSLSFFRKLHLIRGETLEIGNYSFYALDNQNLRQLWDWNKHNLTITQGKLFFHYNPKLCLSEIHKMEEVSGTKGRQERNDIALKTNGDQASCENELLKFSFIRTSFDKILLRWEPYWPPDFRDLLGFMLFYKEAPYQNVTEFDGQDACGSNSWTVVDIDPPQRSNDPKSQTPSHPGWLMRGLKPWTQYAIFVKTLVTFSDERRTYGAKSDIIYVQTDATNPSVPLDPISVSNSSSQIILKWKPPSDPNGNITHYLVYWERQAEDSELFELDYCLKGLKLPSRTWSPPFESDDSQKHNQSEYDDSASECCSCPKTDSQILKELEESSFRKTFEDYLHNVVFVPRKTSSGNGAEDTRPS
Insulin receptor, sequence (P15127 764-1383 limits assumed): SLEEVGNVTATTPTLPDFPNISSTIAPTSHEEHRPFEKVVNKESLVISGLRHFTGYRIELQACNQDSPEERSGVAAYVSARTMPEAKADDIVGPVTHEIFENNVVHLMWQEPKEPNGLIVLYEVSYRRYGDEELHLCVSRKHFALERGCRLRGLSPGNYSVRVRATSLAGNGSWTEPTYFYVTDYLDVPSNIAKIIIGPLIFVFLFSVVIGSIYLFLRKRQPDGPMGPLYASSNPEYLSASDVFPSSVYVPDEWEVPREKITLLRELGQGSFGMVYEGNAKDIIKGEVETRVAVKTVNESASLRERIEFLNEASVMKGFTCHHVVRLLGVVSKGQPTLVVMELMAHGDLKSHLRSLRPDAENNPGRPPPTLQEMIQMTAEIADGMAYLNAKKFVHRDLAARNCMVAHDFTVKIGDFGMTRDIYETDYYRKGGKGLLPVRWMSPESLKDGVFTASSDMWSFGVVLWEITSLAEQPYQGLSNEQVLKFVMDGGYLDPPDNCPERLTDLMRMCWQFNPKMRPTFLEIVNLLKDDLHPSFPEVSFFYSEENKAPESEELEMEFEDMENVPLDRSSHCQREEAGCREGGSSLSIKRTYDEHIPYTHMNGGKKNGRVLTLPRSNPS

As to `CCO` [ALCOHOL], the IC50 result (in assay [1]; in assay [2] (sf9); at Adenosine receptor A3 (cho-k1); on Insulin receptor; in assay [3]; in assay [4]) was “Not Active” in each case. Moreover, the Ki entry in assay [1] and in assay [3] was “Not Active” each time.

Consider `Clc1cc(Cl)c(OCC#CI)cc1Cl` [HALOPROGIN], for which the IC50 result (in assay [1]; on Insulin receptor; in assay [3]; in assay [4]) was “Not Active” throughout. The Ki entry in assay [1] and in assay [3] was “Not Active” in each case. The negative-log IC50 (pIC50) (in general, the negative decadic logarithm of the IC50, by convention in mol/L) in assay [2] (read-out: IC50) is 5.39; at Adenosine receptor A3 (read-out: IC50), 6.65. Also, the pKi – broadly, −log10 of the Ki, conventionally taken in molar units – is 6.23 in assay [2] (read-out: Ki) and 6.90 at Adenosine receptor A3 (read-out: Ki).

As to CHROMIC CHLORIDE, the IC50 result (in assay [1]; in assay [2] (sf9); against Adenosine receptor A3 (cho-k1); against Insulin receptor; in assay [3]; in assay [4]) was “Not Active” each time. In addition, the Ki result (in assay [1]; in assay [2] (sf9); on Adenosine receptor A3 (cho-k1); at Insulin receptor; in assay [3]; in assay [4]) was “Not Active” throughout.

On to `Nc1ccc(Cc2ccc(N)cc2)cc1`, for which the IC50 entry (in assay [1]; in assay [2] (sf9); against Adenosine receptor A3 (cho-k1); at Insulin receptor; in assay [3]; in assay [4]) was “Not Active” each time. Further, the Ki entry in assay [1] and in assay [3] was “Not Active” in each case.

With `COc1cc([C@@H]2c3cc4c(cc3[C@H](O)[C@H]3COC(=O)[C@H]23)OCO4)cc(OC)c1OC` [PODOFILOX], the IC50 entry (in assay [1]; in assay [2] (sf9); on Adenosine receptor A3 (cho-k1); at Insulin receptor; in assay [3]; in assay [4]) was “Not Active” in each case. Besides, the Ki result in assay [1] and in assay [3] was “Not Active” throughout.

For the molecule `OC[C@H]1OC2C3[C@@H](CO)OC(O[C@H]4[C@H](O)[C@@H](O)[C@@H](O[C@H]5[C@H](O)[C@@H](O)[C@@H](O[C@H]6[C@H](O)[C@@H](O)[C@@H](O[C@H]7[C@H](O)[C@@H](O)[C@@H](O[C@H]8[C@H](O)[C@@H](O)[C@@H](O[C@H]9[C@H](O)[C@@H](O)C(OC1[C@H](O)[C@H]2O)O[C@@H]9CO)O[C@@H]8CO)O[C@@H]7CO)O[C@@H]6CO)O[C@@H]5CO)O[C@@H]4CO)[C@H](O)[C@H]3O`, the IC50 entry (in assay [1]; in assay [2] (sf9); against Adenosine receptor A3 (cho-k1); against Insulin receptor; in assay [3]; in assay [4]) was “Not Active” each time. The Ki entry in assay [1] and in assay [3] was “Not Active” in each case.

As to `Nc1ccc(C(=O)O)c(O)c1` [AMINOSALICYLIC ACID], the IC50 entry (in assay [1]; in assay [2] (sf9); on Adenosine receptor A3 (cho-k1); against Insulin receptor; in assay [3]; in assay [4]) was “Not Active” throughout. The Ki result in assay [1] and in assay [3] was “Not Active” in each case.

As for `O=c1[nH]cnc2c1ncn2[C@H]1CC[C@@H](CO)O1` [DIDANOSINE], the IC50 result (in assay [1]; in assay [2] (sf9); against Adenosine receptor A3 (cho-k1); on Insulin receptor; in assay [3]; in assay [4]) was “Not Active” in each case. The Ki entry in assay [1] and in assay [3] was “Not Active” throughout.

As to `CCCCCCNC(=O)n1cc(F)c(=O)[nH]c1=O` [CARMOFUR], the IC50 entry (in assay [1]; in assay [2] (sf9); against Adenosine receptor A3 (cho-k1); against Insulin receptor; in assay [3]) was “Not Active” throughout. Also, the Ki entry in assay [1] and in assay [3] was “Not Active” throughout. In addition, in assay [4] (read-out: IC50), the pIC50 is 5.21.

As to `C#C[C@]1(O)CC[C@H]2[C@@H]3CCC4=CC(=O)CC[C@@H]4[C@H]3CC[C@@]21C` [NORETHINDRONE], the IC50 result (in assay [1]; in assay [2] (sf9); against Adenosine receptor A3 (cho-k1); against Insulin receptor; in assay [3]; in assay [4]) was “Not Active” each time. Further, the Ki entry in assay [1] and in assay [3] was “Not Active” throughout.

On to `Cl.NC[C@H]1CC[C@H](C(=O)Oc2ccc(CCC(=O)O)cc2)CC1` [CETRAXATE HYDROCHLORIDE], for which the IC50 entry (in assay [1]; in assay [2] (sf9); at Adenosine receptor A3 (cho-k1); against Insulin receptor; in assay [3]; in assay [4]) was “Not Active” throughout. Also, the Ki entry in assay [1] and in assay [3] was “Not Active” in each case.

As for `CC(C)Cn1cnc2c(N)nc3ccccc3c21` [IMIQUIMOD], the IC50 entry (in assay [1]; in assay [2] (sf9); against Adenosine receptor A3 (cho-k1); against Insulin receptor; in assay [3]; in assay [4]) was “Not Active” each time. For the same molecule, the Ki result in assay [1] and in assay [3] was “Not Active” each time.

Turning to `O=C1CN(/N=C/c2ccc([N+](=O)[O-])o2)C(=O)N1` [NITROFURANTOIN], the IC50 result (in assay [1]; in assay [2] (sf9); on Adenosine receptor A3 (cho-k1); against Insulin receptor; in assay [3]; in assay [4]) was “Not Active” each time. Besides, the Ki entry in assay [1] and in assay [3] was “Not Active” each time.

Turning to `Cc1c(N)nc([C@H](CC(N)=O)NC[C@H](N)C(N)=O)nc1C(=O)N[C@H](C(=O)N[C@H](C)[C@@H](O)[C@H](C)C(=O)N[C@H](C(=O)NCCc1nc(-c2nc(C(=O)NCCC[S+](C)C)cs2)cs1)[C@@H](C)O)[C@@H](O[C@@H]1O[C@@H](CO)[C@@H](O)[C@H](O)[C@@H]1O[C@H]1O[C@H](CO)[C@@H](O)[C@H](OC(N)=O)[C@@H]1O)c1c[nH]cn1.[Br-]` [BLEOMYCIN A2], the IC50 result (in assay [1]; in assay [2] (sf9); on Adenosine receptor A3 (cho-k1); against Insulin receptor; in assay [3]; in assay [4]) was “Not Active” each time. In addition, the Ki result in assay [1] and in assay [3] was “Not Active” in each case.

As to `CC(C)Cc1ccc([C@H](C)C(=O)O)cc1` [DEXIBUPROFEN], the IC50 entry (in assay [1]; in assay [2] (sf9); on Adenosine receptor A3 (cho-k1); against Insulin receptor; in assay [3]; in assay [4]) was “Not Active” each time. Further, the Ki entry in assay [1] and in assay [3] was “Not Active” each time.

For the molecule `NS(=O)(=O)c1cc(C(=O)O)c(NCc2ccco2)cc1Cl` [FUROSEMIDE], the IC50 entry (in assay [1]; in assay [2] (sf9); against Adenosine receptor A3 (cho-k1); against Insulin receptor; in assay [3]; in assay [4]) was “Not Active” each time. Further, the Ki result in assay [1] and in assay [3] was “Not Active” in each case.

Consider `C[C@H]1C[C@H]2[C@@H]3CCC4=CC(=O)C=C[C@]4(C)[C@@]3(F)[C@@H](O)C[C@]2(C)[C@@]1(O)C(=O)CO` [BETAMETHASONE], for which the IC50 result (in assay [1]; in assay [2] (sf9); against Adenosine receptor A3 (cho-k1); at Insulin receptor; in assay [3]; in assay [4]) was “Not Active” each time. The Ki result in assay [1] and in assay [3] was “Not Active” throughout.

As to `COC(=O)C[C@](O)(CCC(C)(C)O)C(=O)O[C@@H]1C(OC)=C[C@]23CCCN2CCc2cc4c(cc2[C@H]13)OCO4` [HARRINGTONINE], the IC50 result (in assay [1]; in assay [2] (sf9); at Adenosine receptor A3 (cho-k1); at Insulin receptor; in assay [3]; in assay [4]) was “Not Active” in each case. Also, the Ki result in assay [1] and in assay [3] was “Not Active” in each case.

Consider `CC(C)(c1ccc(O)cc1)c1ccc(O)cc1` [BISPHENOL A], for which the IC50 entry (in assay [1]; in assay [2] (sf9); against Adenosine receptor A3 (cho-k1); against Insulin receptor; in assay [3]; in assay [4]) was “Not Active” in each case. The Ki result in assay [1] and in assay [3] was “Not Active” throughout.

Source of the values: ChEMBL document CHEMBL1909046, “DrugMatrix in vitro pharmacology data”.
